Measurements reported in patent US8791264B2 (Purdue Pharma L.P., priority 2006, dated 2014).

Assays:
[1] = molecular target: T1, N-type calcium channel (NTCC) (Homo sapiens, UniProt Q00975); experiment: FLIPR calcium mobilization assay for N-type calcium channel; format: cell-based; settings: calcium mobilization in vitro assay; differentiated IMR32 cells
T1 construct: host or cells: IMR32 cells differentiated with dibutyryl cAMP and bromodeoxyuridine
Procedure, shortened: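 Differentiated IMR32 cells (8 days, dibutyryl cAMP and BrdU) loaded with 3 μM Fluo-4 during 90 mM KCl pre-stimulation, with compound at about 846 pM to 17 μM plus 5 μM nitrendipine. After washes in compound, FLIPR read basal fluorescence 315 s, then 45 s after KCl addition (final 90 mM).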

[2] = molecular target: T2, recombinant rat L-type calcium channel (LTCC) subunits (α1c, α2δ, and β1) (Rattus norvegicus, UniProt P22002); experiment: FLIPR calcium mobilization assay for L-type calcium channel; format: cell-based; settings: calcium mobilization in vitro assay; HEK293 cells expressing rat LTCC
T2 construct: expressed in transfected cells
Experimental: Recombinant human embryonal kidney cells (HEK293, ATCC) stably transfected with either N-type calcium channel (NTCC) subunits (α1b, α2δ, and ⊖3) or L-type calcium channel (LTCC) subunits (α1, α2δ, and β1) were routinely cultured in growth medium consisting of Dulbecco's Modified Eagles Medium containing 10% FBS, 100 U/mL penicillin, 100 μg/mL streptomycin, 4 mM L-glutamine, 500 μg/mL geneticin (G418), 20 μg/mL Blasticidin S (InVivogen, San Diego, Calif.) and 500 μg/mL zeocin (InVivogen).
FLIPR Calcium Mobilization Assay for L-Type Calcium Channel.
One day prior to performing this assay, HEK293 cells stably expressing recombinant rat L-type calcium channel (LTCC) subunits (α1c, α2δ, and β1) were trypsinized, then seeded on poly-D-lysine-coated 96-well clear-bottom black plates (Becton Dickinson, Franklin Lakes, N.J.) at 75,000 cells/well. On the day of the assay, the plates were washed with LTCC wash buffer (127 mM NaCl, 2 mM MgCl2, 700 μM NaH2PO4, 5 mM CaCl2, 5 mM NaHCO3, 8 mM HEPES, 10 mM glucose, pH 7.4), then loaded with 0.1 mL of LTCC wash buffer containing Fluo-4 (3 μM final concentration, Molecular Probes, Eugene, Oreg.). After 1 hour, the cells were washed with 0.1 mL LTCC wash buffer and resuspended in 0.05 mL LTCC assay buffer (same composition as LTCC wash buffer). Plates were then transferred to a FLIPR^96 for assay. The FLIPR measured basal Fluo-4 fluorescence for 15 seconds, then is added 0.05 mL of each compound tested diluted in LTCC assay buffer at final concentrations ranging from about 846 pM to about 17 μM. Fluo-4 fluorescence was then measured for 5 minutes. 0.1 mL KCl agonist dissolved in LTCC assay buffer was then added to the cells to produce a final concentration of 90 mM KCl, and fluorescence was measured for another 45 seconds. Data were collected over the entire time course and analyzed using Excel, Graph Pad Prism, or an in-house regression analysis software.

T1 sequence (Q00975 whole entry): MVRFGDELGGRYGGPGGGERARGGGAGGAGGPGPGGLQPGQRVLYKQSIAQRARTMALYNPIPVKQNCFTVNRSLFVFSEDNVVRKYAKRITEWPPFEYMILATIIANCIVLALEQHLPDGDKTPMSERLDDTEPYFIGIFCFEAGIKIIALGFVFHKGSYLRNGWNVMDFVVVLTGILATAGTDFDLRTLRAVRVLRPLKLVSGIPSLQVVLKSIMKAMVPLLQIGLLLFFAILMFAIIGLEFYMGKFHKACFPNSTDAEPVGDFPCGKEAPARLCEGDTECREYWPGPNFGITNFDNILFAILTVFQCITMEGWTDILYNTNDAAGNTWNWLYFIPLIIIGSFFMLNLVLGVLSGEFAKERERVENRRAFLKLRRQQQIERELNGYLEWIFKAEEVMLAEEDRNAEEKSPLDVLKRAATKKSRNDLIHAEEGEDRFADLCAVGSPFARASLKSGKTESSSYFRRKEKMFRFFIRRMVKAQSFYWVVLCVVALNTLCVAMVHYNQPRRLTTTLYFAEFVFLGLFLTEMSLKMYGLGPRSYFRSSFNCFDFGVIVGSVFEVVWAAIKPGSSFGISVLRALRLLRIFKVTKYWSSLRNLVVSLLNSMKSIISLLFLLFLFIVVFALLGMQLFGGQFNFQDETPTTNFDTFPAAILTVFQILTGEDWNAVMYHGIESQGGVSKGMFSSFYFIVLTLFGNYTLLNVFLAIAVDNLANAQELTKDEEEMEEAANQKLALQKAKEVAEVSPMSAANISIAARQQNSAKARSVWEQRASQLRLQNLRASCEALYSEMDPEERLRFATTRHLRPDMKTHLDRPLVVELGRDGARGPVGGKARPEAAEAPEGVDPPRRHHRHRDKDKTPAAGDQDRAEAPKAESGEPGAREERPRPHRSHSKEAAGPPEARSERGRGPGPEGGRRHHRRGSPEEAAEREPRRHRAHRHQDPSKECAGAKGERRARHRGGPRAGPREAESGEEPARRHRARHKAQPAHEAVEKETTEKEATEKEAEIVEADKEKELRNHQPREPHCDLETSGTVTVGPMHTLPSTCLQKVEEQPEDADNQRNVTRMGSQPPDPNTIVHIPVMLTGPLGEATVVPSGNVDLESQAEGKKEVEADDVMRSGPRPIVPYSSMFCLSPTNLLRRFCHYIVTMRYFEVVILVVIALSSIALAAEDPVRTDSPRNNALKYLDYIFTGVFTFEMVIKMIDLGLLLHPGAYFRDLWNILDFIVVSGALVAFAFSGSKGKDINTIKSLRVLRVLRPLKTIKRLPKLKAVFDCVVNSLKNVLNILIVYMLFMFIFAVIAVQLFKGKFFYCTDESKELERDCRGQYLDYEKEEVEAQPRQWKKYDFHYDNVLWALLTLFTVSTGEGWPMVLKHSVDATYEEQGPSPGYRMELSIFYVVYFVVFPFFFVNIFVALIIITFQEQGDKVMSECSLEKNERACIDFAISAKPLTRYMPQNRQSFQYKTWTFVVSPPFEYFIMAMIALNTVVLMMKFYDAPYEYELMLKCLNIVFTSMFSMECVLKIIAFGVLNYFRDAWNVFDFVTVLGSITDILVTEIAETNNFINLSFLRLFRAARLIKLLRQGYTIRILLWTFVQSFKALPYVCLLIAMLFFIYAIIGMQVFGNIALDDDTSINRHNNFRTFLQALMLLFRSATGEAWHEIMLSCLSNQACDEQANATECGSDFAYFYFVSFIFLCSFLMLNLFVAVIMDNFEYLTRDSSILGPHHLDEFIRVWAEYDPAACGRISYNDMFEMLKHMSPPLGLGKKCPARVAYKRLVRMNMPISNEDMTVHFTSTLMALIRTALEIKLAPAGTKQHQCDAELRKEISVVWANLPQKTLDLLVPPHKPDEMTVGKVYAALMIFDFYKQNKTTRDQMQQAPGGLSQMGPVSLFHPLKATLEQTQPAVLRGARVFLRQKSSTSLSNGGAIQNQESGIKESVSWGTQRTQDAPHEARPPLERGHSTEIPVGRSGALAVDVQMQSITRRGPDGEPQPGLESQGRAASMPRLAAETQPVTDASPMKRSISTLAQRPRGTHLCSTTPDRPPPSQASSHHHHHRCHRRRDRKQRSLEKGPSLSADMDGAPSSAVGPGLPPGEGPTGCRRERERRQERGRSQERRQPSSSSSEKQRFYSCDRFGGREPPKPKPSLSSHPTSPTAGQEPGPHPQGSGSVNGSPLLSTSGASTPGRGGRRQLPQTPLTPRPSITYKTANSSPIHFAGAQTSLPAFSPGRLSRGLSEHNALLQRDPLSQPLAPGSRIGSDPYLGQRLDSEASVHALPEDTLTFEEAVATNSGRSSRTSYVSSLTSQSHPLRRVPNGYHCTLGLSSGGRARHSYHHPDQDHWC
T1 sequence (P54289 25-956 partner limits assumed): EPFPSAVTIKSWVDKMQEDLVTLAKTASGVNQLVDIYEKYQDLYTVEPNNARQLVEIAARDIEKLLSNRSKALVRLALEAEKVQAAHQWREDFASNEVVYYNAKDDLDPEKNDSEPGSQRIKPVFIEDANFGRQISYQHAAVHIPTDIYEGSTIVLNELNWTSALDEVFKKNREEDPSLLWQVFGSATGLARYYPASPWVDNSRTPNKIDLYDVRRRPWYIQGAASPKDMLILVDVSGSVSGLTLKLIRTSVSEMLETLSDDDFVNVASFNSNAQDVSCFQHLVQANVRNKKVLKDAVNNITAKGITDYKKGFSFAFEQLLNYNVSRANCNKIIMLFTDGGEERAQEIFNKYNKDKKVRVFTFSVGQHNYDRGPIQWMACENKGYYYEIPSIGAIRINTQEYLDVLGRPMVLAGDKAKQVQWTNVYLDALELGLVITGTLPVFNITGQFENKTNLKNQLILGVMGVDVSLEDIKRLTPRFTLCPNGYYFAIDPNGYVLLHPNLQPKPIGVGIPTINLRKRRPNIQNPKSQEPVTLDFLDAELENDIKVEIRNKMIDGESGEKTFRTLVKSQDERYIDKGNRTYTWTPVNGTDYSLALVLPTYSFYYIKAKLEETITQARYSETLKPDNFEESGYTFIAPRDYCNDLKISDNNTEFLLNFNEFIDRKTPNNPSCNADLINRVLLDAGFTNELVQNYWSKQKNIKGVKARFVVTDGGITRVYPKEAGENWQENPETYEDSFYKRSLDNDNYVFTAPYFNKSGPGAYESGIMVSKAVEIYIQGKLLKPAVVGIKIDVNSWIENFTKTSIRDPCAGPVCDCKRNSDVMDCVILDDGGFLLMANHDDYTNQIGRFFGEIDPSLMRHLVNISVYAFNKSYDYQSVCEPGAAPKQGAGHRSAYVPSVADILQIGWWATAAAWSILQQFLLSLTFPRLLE
T1 sequence (P54289 957-1103 partner limits assumed): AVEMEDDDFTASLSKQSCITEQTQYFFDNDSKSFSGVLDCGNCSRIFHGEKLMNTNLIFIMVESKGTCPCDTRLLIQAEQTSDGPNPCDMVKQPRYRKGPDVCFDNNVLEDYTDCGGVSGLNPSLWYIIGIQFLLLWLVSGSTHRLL
T1 sequence (P54284 whole entry partner): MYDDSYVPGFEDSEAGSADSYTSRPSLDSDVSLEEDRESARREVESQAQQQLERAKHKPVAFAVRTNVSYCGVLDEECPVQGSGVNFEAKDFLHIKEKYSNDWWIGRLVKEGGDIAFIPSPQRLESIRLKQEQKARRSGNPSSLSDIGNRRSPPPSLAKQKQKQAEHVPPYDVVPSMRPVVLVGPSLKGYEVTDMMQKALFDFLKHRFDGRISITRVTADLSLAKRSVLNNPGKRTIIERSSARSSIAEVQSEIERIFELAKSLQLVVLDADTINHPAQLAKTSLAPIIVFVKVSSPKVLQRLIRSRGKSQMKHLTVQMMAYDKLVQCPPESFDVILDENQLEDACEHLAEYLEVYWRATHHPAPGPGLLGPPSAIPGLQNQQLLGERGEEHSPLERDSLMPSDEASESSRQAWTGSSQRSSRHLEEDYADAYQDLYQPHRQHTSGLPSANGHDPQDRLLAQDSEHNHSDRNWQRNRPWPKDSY

| SMILES | IC50 [1] [nM] | IC50 [2] [nM] |
| --- | --- | --- |
| Cc1cccc(C)c1NC(=O)CN1CCC(N(C2CC2)S(=O)(=O)c2cccc(C(F)(F)F)c2)CC1 [Compound 58, 2-{4-[Cyclopropyl-(3-trifluoromethylbenzenesulfonyl)-amino]-piperidin-1-yl}-N-(2,6-dimethylphenyl)acetamide] | 310 | 5920 |
| CC(C)c1ccc(NC(=O)CN2CCC(N(C3CC3)S(=O)(=O)c3cccc(C(F)(F)F)c3)CC2)cc1 [Compound 59, 2-{4-[Cyclopropyl-(3-trifluoromethylbenzenesulfonyl)-amino]-piperidin-1-yl}-N-(4-isopropylphenyl)acetamide] | 420 | 10000 to 20000 |
| CN(C1CCN(CC(=O)Nc2ccc(C(F)(F)F)cc2)CC1)S(=O)(=O)c1cccc(C(F)(F)F)c1 [Compound 60, 2-{4-[Methyl-(3-trifluoromethylbenzenesulfonyl)-amino]-piperidin-1-yl}-N-(4-trifluoromethylphenyl)acetamide] | 990 | > 20000 |
| O=C(CN1CCC(N(C2CC2)S(=O)(=O)c2cccc(C(F)(F)F)c2)CC1)Nc1cc(C(F)(F)F)cc(C(F)(F)F)c1 [Compound 63, N-(3,5-Bis-trifluoromethylphenyl)-2-{4-[cyclopropyl-(3-trifluoromethylbenzenesulfonyl)amino]-piperidin-1-yl}-acetamide] | 660 | > 20000 |
| O=C(CN1CCC(N(C2CC2)S(=O)(=O)c2cccc(C(F)(F)F)c2)CC1)NCc1cc(C(F)(F)F)cc(C(F)(F)F)c1 [Compound 64, N-(3,5-Bis-trifluoromethylbenzyl)-2-{4-[cyclopropyl-(3-trifluoromethylbenzenesulfonyl)amino]-piperidin-1-yl}-acetamide] | 220 | > 20000 |
| CCOc1cc(F)ccc1NC(=O)CN1CCC(N(C2CC2)S(=O)(=O)c2cccc(C(F)(F)F)c2)CC1 [Compound 70, 2-{4-[Cyclopropyl-(3-trifluoromethylbenzenesulfonyl)amino]-piperidin-1-yl}-N-(2-ethoxy-4-fluorophenyl)-acetamide] | 920 | > 20000 |
| O=C(CN1CCC(N(C2CC2)S(=O)(=O)c2cccc(C(F)(F)F)c2)CC1)Nc1ccc(F)c(C(F)(F)F)c1 [Compound 71, 2-{4-[Cyclopropyl-(3-trifluoromethylbenzenesulfonyl)amino]-piperidin-1-yl}-N-(4-fluoro-3-trifluoromethylphenyl)-acetamide] | 610 | > 20000 |
| O=C(CN1CCC(N(C2CC2)S(=O)(=O)c2cccc(C(F)(F)F)c2)CC1)Nc1cc(F)cc(C(F)(F)F)c1 [Compound 73, 2-{4-[Cyclopropyl-(3-trifluoromethylbenzenesulfonyl)amino]-piperidin-1-yl}-N-(3-fluoro-5-trifluoromethylphenyl)-acetamide] | 610 | > 20000 |
| O=C(CN1CCC(N(C2CC2)S(=O)(=O)c2cccc(C(F)(F)F)c2)CC1)Nc1cc(F)cc(F)c1 [Compound 74, 2-{4-[Cyclopropyl-(3-trifluoromethylbenzenesulfonyl)amino]-piperidin-1-yl}-N-(3,5-difluorophenyl)-acetamide] | 370 | 6600 |
| O=C(CN1CCC(N(C2CC2)S(=O)(=O)c2cccc(C(F)(F)F)c2)CC1)Nc1ccc(C(F)(F)F)cc1F [Compound 75, 2-{4-[Cyclopropyl-(3-trifluoromethylbenzenesulfonyl)amino]-piperidin-1-yl}-N-(2-fluoro-4-trifluoromethylphenyl)-acetamide] | 780 | > 20000 |
| O=C(CN1CCC(N(C2CC2)S(=O)(=O)c2cccc(C(F)(F)F)c2)CC1)Nc1cncc(F)c1 [Compound 78, 2-{4-[Cyclopropyl-(3-trifluoromethylbenzenesulfonyl)amino]-piperidin-1-yl}-N-(5-fluoro-pyridin-3-yl)-acetamide] | 610 | > 20000 |

The remaining lines, values ahead:

| IC50 [1] [nM] | IC50 [2] [nM] | SMILES |
| --- | --- | --- |
| 860 | > 20000 | O=C(CN1CCC(N(C2CC2)S(=O)(=O)c2cccc(C(F)(F)F)c2)CC1)Nc1cc(Cl)cc(Cl)c1 [Compound 79, 2-{4-[Cyclopropyl-(3-trifluoromethylbenzenesulfonyl)amino]-piperidin-1-yl}-N-(3,5-dichlorophenyl)-acetamide] |
| 500 | > 20000 | Cc1cc(C)cc(NC(=O)CN2CCC(N(C3CC3)S(=O)(=O)c3cccc(C(F)(F)F)c3)CC2)c1 [Compound 80, 2-{4-[Cyclopropyl-(3-trifluoromethylbenzenesulfonyl)amino]-piperidin-1-yl}-N-(3,5-dimethylphenyl)-acetamide] |
| 360 | > 20000 | N#Cc1cc(F)cc(NC(=O)CN2CCC(N(C3CC3)S(=O)(=O)c3cccc(C(F)(F)F)c3)CC2)c1 [Compound 81, N-(3-Cyano-5-fluorophenyl)-2-{4-[cyclopropyl-(3-trifluoromethyl-benzenesulfonyl)amino]-piperidin-1-yl}-acetamide] |
| 320 | > 20000 | CC(C)N(C1CCN(CC(=O)N(c2ccc(F)cc2)c2ccc(F)cc2)CC1)S(=O)(=O)c1cccc(C(F)(F)F)c1 [Compound 84, N,N-Bis-(4-fluorophenyl)-2-{4-[isopropyl-(3-trifluoromethyl-benzenesulfonyl)amino]-piperidin-1-yl}-acetamide] |
| 300 | > 20000 | CC(C)C[C@H](NCc1ccccc1)C(=O)N1CCC(N(C(C)C)S(=O)(=O)c2cccc(C(F)(F)F)c2)CC1 [Compound 88b, (S)—N-[1-(2-Benzylamino-4-methylpentanoyl)-piperidin-4-yl]-N-isopropyl-3-trifluoromethylbenzenesulfonamide] |
| 620 | 7080 | CC(C)C[C@H](NC1CCCC1)C(=O)N1CCC(N(C(C)C)S(=O)(=O)c2cccc(C(F)(F)F)c2)CC1 [Compound 88c, (S)—N-[1-(2-Cyclopentylamino-4-methyl-pentanoyl)-piperidin-4-yl]-N-isopropyl-3-trifluoromethyl-benzenesulfonamide] |
| 100 | 3580 | CC(C)N(C1CCN(C(=O)[C@H](Cc2ccccc2)NCC2CCCCC2)CC1)S(=O)(=O)c1cccc(C(F)(F)F)c1 [Compound 88d, (S)—N-{1-[2-(Cyclohexylmethyl-amino)-3-phenyl-propionyl]-piperidin-4-yl}-N-isopropyl-3-trifluoromethyl-benzenesulfonamide] |
| 560 | 10000 to 20000 | CC(C)N(C1CCN(C(=O)CNCc2ccccc2)CC1)S(=O)(=O)c1cccc(C(F)(F)F)c1 [Compound 93, N-[1-(2-Benzylaminoacetyl)-piperidin-4-yl]-N-isopropyl-3-trifluoromethylbenzenesulfonamide] |
| 700 | 10000 to 20000 | COc1ccc(CNCC(=O)N2CCC(N(C(C)C)S(=O)(=O)c3cccc(C(F)(F)F)c3)CC2)cc1 [Compound 94, N-Isopropyl-N-{1-[2-(4-methoxy-benzylamino)acetyl]-piperidin-4-yl}-3-trifluoromethylbenzenesulfonamide] |
| 820 | 4410 | CCC(C(=O)N1CCC(N(C(C)C)S(=O)(=O)c2cccc(C(F)(F)F)c2)CC1)N(C)Cc1ccccc1 (stereo not drawn) [Compound 96, N-{1-[2-(Benzyl-methyl-amino)butyryl]-piperidin-4-yl}-N-isopropyl-3-trifluoromethylbenzenesulfonamide] |
| 350 | > 20000 | COc1ccc(CNCC(=O)N2CCC(N(C3CC3)S(=O)(=O)c3cccc(C(F)(F)F)c3)CC2)cc1 [Compound 99, N-Cyclopropyl-N-{1-[2-(4-methoxybenzylamino)acetyl]-piperidin-4-yl}-3-trifluoromethylbenzenesulfonamide] |
| 660 | 10000 to 20000 | COc1ccc(CNCC(=O)N2CCC(N(C3CC3)S(=O)(=O)c3ccc(Cl)cc3)CC2)cc1 [Compound 100, 4-Chloro-N-cyclopropyl-N-{1-[2-(4-methoxybenzylamino)acetyl]-piperidin-4-yl}-benzenesulfonamide] |
| 630 | 8100 | COc1ccccc1CNCC(=O)N1CCC(N(C2CC2)S(=O)(=O)c2ccc(Cl)cc2)CC1 [Compound 101, 4-Chloro-N-cyclopropyl-N-{1-[2-(2-methoxybenzylamino)acetyl]-piperidin-4-yl}-benzenesulfonamide] |
